# Measurements as given in patent publication US20240408008A1, “AN IN-SITU GELLING ENEMA OF RIFAMYCIN FOR TREATING POUCHITIS AND DISTAL ULCERATIVE COLITIS” (COSMO TECHNOLOGIES LTD., priority 2021, published 2024).
# pIC50: −log10 of the molar value.
# Legend:
# Escherichia coli = assay: MIC, broth dilution; assay type: cell-based; conditions: aerobic
# mTOR pathway = assay: Inhibition of mTOR and S6R phosphorylation in primary colonic epithelial cells, flow cytometry; assay type: cell-based, human
# Procedure: To evaluate Rifamycin activity on the mTOR pathway, primary colonic epithelial cells were serum starved for 24 hr and restimulated with serum for 48 hr to induce phosphorylation of mTOR and its downstream target protein […]. Serum stimulated cells were treated with Rifamycin SV, Rifaximin, the positive control Rapamycin, or the negative vehicle control DMSO. Cells were fixed, stained with antibodies against pmTOR and pS6R then analyzed by flow cytometry.
# DSS induced colitis = assay: Acute colitis induced by Dextran Sulfate Sodium (DSS); assay type: in vivo; conditions: mice, DSS 2%, enema 67 mg/kg
# Procedure: In situ gel enema formulation batch 7663 (same formulation as batch 7639) in vivo efficacy was tested in a murine model of acute colitis induced by Dextran Sulfate Sodium (DSS). This animal model is perhaps the most widely used mouse model of colitis and employs DSS, a chemical colitogen with anticoagulant properties, to induce disease which closely resembles human UC. DSS induced intestinal inflammation results in damage to the epithelial monolayer lining the large intestine allowing the dissemination of proinflammatory intestinal contents (e.g. bacteria and their products) into underlying tissue.
# (§1) For this study, a group of mice was treated by enema with Batch 7663 (indicated as CB0125 in the figures) (dose 45 mg/kg), one group was treated by enema with Placebo Batch 7679 as a comparator for 7663; a group was treated by enema with Rifamycin powder dissolved in water (67 mg/kg). One group of mice was treated orally PO with 5-ASA at the dose of 100 mg/Kg; this group was introduced as positive control. 5-ASA is the golden standard therapy for inflammatory bowel diseases, including UC, distal UC and proctitis. One group was treated by enema with the vehicle (H2O) only, as negative control.
# Briefly DSS (2%) was dissolved in water (w/v) and given to mice in place of normal drinking water. DSS water was provided ad libitum for 5 days and was changed daily. This period was followed by a washout period of 5 days with water only. Mice were weighed daily and monitored for clinical status including hunching, mobility, soft stool and/or diarrhoea. At end of the study mice were sacrificed by CO2 inhalation. Immediately after euthanasia, the animals were laparatomyzed and intestine was exteriorized. The entire colon was isolated from the caecum to the anus, placed unstretched on a ruler and then measured and weighed after rinsing the lumen with saline. The weight was normalized to the colon length by calculating the ratio.
# For histological analysis of colon samples, about 2 cm of the middle portion of isolated colon was fixed in a 10% formalin. Each fixed fragment was embedded in paraffin. The slides were stained with haematoxylin and eosin and assessed according to the histological score.
# K. pneumoniae = assay: MIC, broth dilution; assay type: cell-based; conditions: Klebsiella pneumoniae, aerobic
# Ruminococcus gnavus = assay: MIC, broth dilution; assay type: cell-based; conditions: Mediterraneibacter gnavus, DSM108212; Ruminococcus gnavus (DSM 108212); anaerobic
# Porphiromonas gingivalis = assay: MIC, broth dilution; assay type: cell-based; conditions: Porphiromonas gingivalis (DSM 20709); anaerobic
# [1] = system: Aggregatibacter actinomycetemcomitans; assay: MIC, broth dilution; assay type: cell-based; conditions: DSM11123; Aggregatibacter actinomycetemcomitans (DSM 11123); anaerobic
# E. faecalis = assay: MIC, broth dilution; assay type: cell-based; conditions: Enterococcus faecalis, aerobic
# B. adolescentis = assay: MIC, broth dilution; assay type: cell-based; conditions: Bifidobacterium adolescentis, DSM20083; B. adolescentis (DSM 20083); anaerobic
# Klebsiella oxytoca = assay: MIC, broth dilution; assay type: cell-based; conditions: aerobic
# Bifidobacterium breve = assay: MIC, broth dilution; assay type: cell-based; conditions: DSM20091; Bifidobacterium breve (DSM 20091); anaerobic
# [2] = Rifamycin concentration in colon of DSS mice, HPLC MS/MS; assay type: in vivo; conditions: enema 67 mg/kg, all the tested time-points
# Procedure: as §1
# For PK analysis colon samples were cut into in pieces and washed 3 times with PBS to remove surface contaminants.
# Rothia dentocariosa = assay: MIC, broth dilution; assay type: cell-based; conditions: DSM43762; Rothia dentocariosa (DSM 43762); aerobic
# Prevotella intermedia = assay: MIC, broth dilution; assay type: cell-based; conditions: DSM20706; Prevotella intermedia (DSM 20706); anaerobic
compound,measurement,setting,value
CO[C@H]1/C=C/O[C@@]2(C)Oc3c(C)c(O)c4c(O)c(cc(O)c4c3C2=O)NC(=O)/C(C)=C\C=C\[C@H](C)[C@H](O)[C@@H](C)[C@@H](O)[C@@H](C)[C@H](OC(C)=O)[C@@H]1C [Rifamycin SV],MIC,"Escherichia coli; ATCC35218, Escherichia coli (ATCC 35218)",50 µg/mL
same,MIC,"Escherichia coli; Escherichia coli, ATCC11775, E. coli (ATCC 11775)",16 µg/mL
same,MIC,"Escherichia coli; Escherichia coli, ATCC25922, E. coli (ATCC 25922)",64 µg/mL
same,MIC,"Escherichia coli; Escherichia coli, ATCC51446, E. coli (ATCC 51446)",200 µg/mL
same,MIC,"Escherichia coli; Escherichia coli, DSM22312, E. coli (DSM 22312)",32 µg/mL
same,MIC,"Escherichia coli; Escherichia coli, DSM22313, E. coli (DSM 22313 )",64 µg/mL
same,MIC,"Escherichia coli; Escherichia coli, DSM22664, E. coli (DSM 22664 )",32 µg/mL
same,pIC50,"mTOR pathway; Homo sapiens, Epithelial cell, serum stimulated primary colonic epithelial cells, 48 hr, read-out: IC50, % cells positive for anti-pmTOR and anti-pS6R relative to DMSO",5.00
same,"mTOR pathway potency, fold less potent than Rapamycin",mTOR pathway; ratio of IC50,20 fold
same,"mTOR pathway potency, fold more potent than Rifaximin",mTOR pathway; ratio of IC50,4 fold
same,histological score,DSS induced colitis; compared to 7663,lower improvement
same,clinical score AUC,DSS induced colitis; compared to batch 7663,lower efficacy
same,cumulative stool score,DSS induced colitis; vs vehicle,significant improvement
same,MIC,"K. pneumoniae; DSM16609, K. pneumoniae (DSM 16609)",> 64 µg/mL
same,MIC,"K. pneumoniae; DSM25721, K. pneumoniae (DSM 25721)",64 µg/mL
same,MIC,Ruminococcus gnavus,< 0.03 µg/mL
same,MIC,Porphiromonas gingivalis,< 0.3 µg/mL
same,MIC,[1],< 0.3 µg/mL
same,MIC,"E. faecalis; ATCC29212, E. faecalis (ATCC 29212)",50 µg/mL
same,MIC,"E. faecalis; DSM2570, E. faecalis (DSM 2570)",200 µg/mL
same,MIC,"E. faecalis; DSM2921, E. faecalis (DSM 2921)",64 µg/mL
same,MIC,"E. faecalis; DSM2981, E. faecalis (DSM 2981)",200 µg/mL
same,MIC,"E. faecalis; DSM6134, E. faecalis (DSM 6134)",50 µg/mL
same,MIC,E. faecalis; E. faecalis (6172818861),12.5 µg/mL
same,MIC,E. faecalis; E. faecalis (C 46),12.5 µg/mL
same,MIC,E. faecalis; E. faecalis (E 83),3.12 µg/mL
same,MIC,B. adolescentis,1 µg/mL
same,MIC,"Klebsiella oxytoca; DSM6673, Klebsiella oxytoca (DSM 6673)",128 µg/mL
same,MIC,"Klebsiella oxytoca; Klebsiella oxytoca, ATCC700324, K. oxytoca (ATCC 700324)",200 µg/mL
same,MIC,"Klebsiella oxytoca; Klebsiella oxytoca, DSM4798, K. oxytoca (DSM 4798)",256 µg/mL
same,MIC,"Klebsiella oxytoca; Klebsiella oxytoca, DSM5175, K. oxytoca (DSM 5175)",128 µg/mL
same,MIC,Bifidobacterium breve,0.5 µg/mL
same,Rifamycin concentration in the colon homogenate,[2],lower than that of the animals treated with formulation 7663
same,MIC,Rothia dentocariosa,< 0.03 µg/mL
same,MIC,Prevotella intermedia,< 0.3 µg/mL
